Values of other authors, collected in patent US12394502B2, “Method for predicting HLA-binding peptides using protein structural features” (The General Hospital Corporation, priority 2019, dated 2025).

Legend:
[1] = tested on: advanced hormone refractory prostate cancer patients; settings: personalized vaccination alone or combined with a low dose of estramustine
[2] = tested on: ovarian carcinoma patients
[3] = more than 25 clinical trials
[4] = tested on: Stage IV Melanoma Patients; settings: temozolomide combined with peptide vaccination

## C[C@]12CC[C@@H]3c4ccc(OC(=O)N(CCCl)CCCl)cc4CC[C@H]3[C@@H]1CC[C@@H]2O [estramustine]
[1]
  patients with >50% decrease in serum prostate specific antigen (PSA): 54%

## Polyinosinic-Polycytidylic Acid-poly-L-lysine Carboxymethylcellulose [poly-ICLC]
[2]; 1.4 mg poly-ICLC and Montanide added to OLP, compared to OLP alone or OLP and Montanide, subcutaneous
  generation of NY-ESO-1-specific CD4+ and CD8+ T cell and antibody responses: markedly enhanced
[2]; poly-ICLC in combination with NY-ESO-1 peptide vaccine (in addition to Montanide)
  patients showing induction of CD4+ and CD8+ T cell, as well as antibody responses to the peptide: > 90%
[3]
  toxicity profile: relatively benign toxicity profile
Healthy human volunteers; human volunteer study
  safety: safe
Healthy human volunteers; one single s.c. administration, 8 subjects versus 4 placebo, whole blood
  differential expression of genes versus placebo: up to 212 genes

## Cn1nnc2c(C(N)=O)ncn2c1=O [temozolomide]
[4]
  toxicity: low toxicity
